In PMC7403315, “Cyclic peptide FXII inhibitor provides safe anticoagulation in a thrombosis model and in artificial lungs” (Nature Communications, 2020):
“And” between values parts separate entries of the source, which are not always exact repeats. Equal values may be shown once. Read-outs that look alike come from different tables or passages of the source. Starred links: 1 amine or outer side, 2 acyl side, 3 side chain; linkers in the order of their positions; H or OH if unused. Positions of bridges follow the written chain, without caps; N, C: chain ends. Non-standard residues stand in square brackets, D forms with d. Residues, ends and D or L forms follow the SMILES beside them. TATA = O=C(CC[*:1])N1CN(C(=O)CC[*:2])CN(C(=O)CC[*:3])C1; Phe(4-F) = N[C@@H](Cc1ccc(F)cc1)C(=O)O; β3hR = N=C(N)NCCC[C@H](N)CC(=O)O

Experiments:
[1] = Plasma stability assay (residual FXIIa inhibitory activity after plasma incubation); assay type: in vitro ADME, human; settings: for Residual activity of inhibitor: human plasma 37 °C; for half-life at 10 μM: human, plasma
Procedure: Peptide (2 μl of 2 mM in H2O) was added to 398 μl of citrated human plasma (Innovative Research) to obtain a final peptide concentration of 10 μM. The mixture was incubated in a water bath at 37 °C. At different time points (0, 0.5, 1, 2, 4, 8, 12, 24, 48, and 96 h), samples of 30 μl were removed, diluted to 200 μl with aqueous buffer (10 mM Tris-HCl, pH 7.4, 150 mM NaCl, 10 mM MgCl2, 1 mM CaCl2), and incubated for 20 min at 65 °C to inactivate plasma proteases. The peptide/plasma samples were stored at −20 °C until the residual inhibitory activity of the peptides was measured in a FXIIa inhibition assay. […] IC50 values were derived from the fitted curve using an equation described in the Supplementary Methods. Residual inhibition in % was calculated using the equation IC50,0h/IC50,xh*100, wherein IC50,0h is the functional strength of the inhibitor at time point 0 and IC50,xh the functional strength of the inhibitor after one of the different plasma incubation periods mentioned above.

[2] = Plasma degradation assay (LC-MS); assay type: in vitro ADME, mouse; settings: 37 °C
Procedure: Plasma stability and peptide cleavage sites were assessed by incubating the bicyclic peptides in mouse plasma and analyzing the products with an LC-MS system (LCMS-2020, Shimadzu). Peptide (2 μl of 2 mM in H2O) was added to 48 μl of citrated mouse plasma (Innovative Research) to obtain a final peptide concentration of 80 μM. The mixture was incubated in a water bath at 37 °C. At different time points (0, 15, 24, 72, 96, 120, and 144 h), samples of 5 μl were removed, mixed with 5 μl of 6 M guanidinium hydrochloride, and incubated for 30 min at RT. Plasma proteins were precipitated by incubation with 200 μl of ice cold EtOH and 0.1% (v/v) formic acid for 30 min and centrifuged at 9000 × g for 20 min at 4 °C. […] The residue was dissolved in 40 µl of deionized water containing 0.1% (v/v) CHOOH and analyzed by LC-MS. The samples were analyzed using an analytical C18 column (Phenomenex C18 Kinetex column, 50 × 2.1 mm, 2.6 μm, 100 Å) and a linear gradient of 5–35% solvent B (MeCN, 0.05% [v/v] CHOOH) in solvent A (H2O, 0.05% [v/v] CHOOH) in 5.5 min at a flow of 1 ml per min. The masses of the intact peptide and degradation products were measured on a single quadrupole mass spectrometer in positive ion mode using electrospray ionization. Peptides were quantified based on the absolute intensities of the detected mass peaks (M^3+ and M^4+).

[3] = Pharmacokinetic study in mice (plasma concentration by LC-MS); assay type: in vivo, mouse; settings: 5 mg kg^−1 subcutaneous
Procedure: Mice for all experiments were kept at ambient temperature (around 20 °C), around 60% humidity, half-day light/half-day dark cycles, and in groups of 2–5 mice per cage. C57BL/6J wild-type mice (male, 10–20 weeks old, 25–30 g, Charles River) were injected subcutaneously over the shoulders with 5 mg kg^−1 of FXII900 (0.5 mg ml^−1 in PBS, pH 7.4). The mice were anaesthetized 3 min before the scheduled blood collection time point (40 mg kg^−1 pentobarbital). […] The mice were euthanized by cervical dislocation. The blood was immediately processed to plasma by centrifugation for 10 min at 2000 × g and 4 °C, and stored at −80 °C. The concentration of FXII900 in the plasma samples was determined by LC-MS as described below. Differenct mice were used for each time point.
(§1) The concentration of FXII900 in the plasma samples was quantified based on peak intensities of total ion current (TIC) chromatograms acquired by LC-MS (LCMS-2020, Shimadzu). To 15 μl of plasma sample, 1 μM of internal standard peptide and 5 μl of 6 M guanidinium hydrochloride solution were added and mixed. Plasma proteins were precipitated by the addition of 400 µl of ice cold ethanol (99.9% [v/v] EtOH, 0.1% [v/v] TFA) and incubated on ice for one hour. Precipitate was removed by centrifugation (9000 × g, 20 min, 4 °C) and the supernatant dried by centrifugal evaporation under vacuum. Dried samples were dissolved by sequentially adding 2 μl of DMSO and 18 μl of H2O containing 0.1% (v/v) CHOOH and analyzed by LC-MS. The samples were analyzed using an analytical C18 column (Phenomenex C18 Kinetex column, 50 × 2.1 mm, 2.6 µm, 100 Å) and a linear gradient of 5–30% solvent B (MeCN, 0.05% [v/v] CHOOH) in solvent A (H2O, 0.05% [v/v] CHOOH) in 4.5 min at a flow of 1 ml per min. The mass was measured on a single quadrupole mass spectrometer in positive ion mode using electrospray ionization. Peptides were quantified based on the absolute intensities of the detected mass peaks (M^3+ and M^4+).

[4] = Pharmacokinetic study in pigs (plasma concentration by LC-MS); assay type: in vivo, pig
Procedure: Swiss large white pigs, both sexes, 3–4 months old (30 ± 5 kg) were anesthetized and prepared following procedures used to study myocardial ischemia/reperfusion injury. In this procedure, the ACT is monitored and 2500 IU of heparin are injected when ACT values fall below 180 s. Pigs were injected intravenously with 4 mg kg^−1 of FXII900 dissolved in 1 ml PBS, pH 7.4. […] The concentration of FXII900 in the plasma samples was determined by LC-MS as described below.
as §1

With `CC(C)C[C@@H]1NC(=O)[C@H](CCC(N)=O)NC(=O)[C@H](Cc2c[nH]cn2)NC(=O)[C@@H]2CSCCC(=O)N3CN(CN(C3)C(=O)CCSC[C@H](NC(=O)[C@@H](CO)NC(=O)[C@H](N)CCCNC(=N)N)C(=O)N[C@@H](Cc3ccc(F)cc3)C(=O)N[C@@H](CCCNC(=N)N)C(=O)N[C@@H](CC(C)C)C(=O)N3CCC[C@H]3C(=O)N2)C(=O)CCSC[C@@H](C(N)=O)NC(=O)C[C@H](CCCNC(=N)N)NC1=O` [FXII900] (H-[dR][dS]C[Phe(4-F)]RLPCHQL[β3hR]C-NH2; linker 3-8-13 via TATA) the “Residual activity of inhibitor” value ([1]; incubation time 0 h) was 100%, the “Residual activity of inhibitor” value ([1]; incubation time 1 h) was 95.4017% and 101.157% and the “Residual activity of inhibitor” value ([1]; incubation time 2 h) was 110.888% and 102.799%. For the same compound, the “Residual activity of inhibitor” value ([1]; incubation time 4 h) was 107.121% and 93.1543%, the “Residual activity of inhibitor” value ([1]; incubation time 8 h) was 88.5873% and 105.225% and the “Residual activity of inhibitor” value ([1]; incubation time 12 h) was 112.249% and 90.2639%. For the same compound, the “Residual activity of inhibitor” value ([1]; incubation time 24 h) was 92.7385% and 98.9596%, the “Residual activity of inhibitor” value ([1]; incubation time 48 h) was 82.5714% and 71.5934% and the “Residual activity of inhibitor” value ([1]; incubation time 96 h) was 52.5% and 56.04%. The half-life at 10 μM ([1]; 37 °C, remaining FXIIa inhibitory activity, read-out: half-life in human plasma (converted)) was 128 h, the half-life at 10 μM ([1]; t1/2 in plasma) was > 120 h and the “degradation products by mass spectrometric analysis of plasma samples” value [2] was “no degradation products”. It also gave a Plasma conc. ([3]; 15 min) of 1470 nM, a level at time molar at 0.05 h ([3]; male, C57BL/6J, mouse, plasma, sc, 5 mg/kg, 3 min, read-out: Plasma conc.) of ~1000 nM and a level at time molar at […] ([3]; male, C57BL/6J, mouse, plasma, sc, 5 mg/kg, 15 min, read-out: Plasma conc.) of 1990 nM. The clearance ([4]; both sexes, Swiss large white, pig, plasma, intravenous, 4 mg kg^−1, read-out: clearance rate (CL)) was 11.8 ± 1.8 mL/min/kg, the Cmax ([4]; both sexes, Swiss large white, pig, plasma, intravenous, 4 mg kg^−1, read-out: maximal concentration) was ~7000 nM and the half-life ([4]; both sexes, Swiss large white, pig, plasma, intravenous, 4 mg kg^−1, read-out: t1/2 (t1/2 β)) was 0.6 ± 0.0833 h. For the same compound, the Vd ([4]; both sexes, Swiss large white, pig, plasma, intravenous, 4 mg kg^−1, read-out: volume of distribution (VD)) was 0.61 ± 0.14 L/kg, the level at time molar at 4 min ([4]; both sexes, Swiss large white, pig, plasma, iv, 4 mg/kg, intravenous administration, 4 min, individual pigs and analyses, read-out: Plasma conc.) was 7470 nM and the level at time molar at […] ([4]; both sexes, Swiss large white, pig, plasma, iv, 4 mg/kg, intravenous administration, 15 min, individual pigs and analyses, read-out: Plasma conc.) was 2710 nM. The level at time molar at 16 min ([4]; both sexes, Swiss large white, pig, plasma, iv, 4 mg/kg, intravenous administration, 16 min, individual pigs and analyses, read-out: Plasma conc.) was 3720 nM, the level at time molar at 35 min ([4]; both sexes, Swiss large white, pig, plasma, iv, 4 mg/kg, intravenous administration, 35 min, individual pigs and analyses, read-out: Plasma conc.) was 1290 nM and the level at time molar at 0.6 h ([4]; both sexes, Swiss large white, pig, plasma, iv, 4 mg/kg, intravenous administration, 36 min, individual pigs and analyses, read-out: Plasma conc.) was 1780 nM. The level at time molar at 65 min ([4]; both sexes, Swiss large white, pig, plasma, iv, 4 mg/kg, intravenous administration, 65 min, individual pigs and analyses, read-out: Plasma conc.) was 692 nM, the level at time molar at 1.1 h ([4]; both sexes, Swiss large white, pig, plasma, iv, 4 mg/kg, intravenous administration, 66 min, individual pigs and analyses, read-out: Plasma conc.) was 799 nM and the level at time molar at 2 h ([4]; both sexes, Swiss large white, pig, plasma, iv, 4 mg/kg, intravenous administration, 120 min, individual pigs and analyses, read-out: Plasma conc.) was 278 nM. For the same compound, the “Plasma conc.” value ([4]; intravenous administration, 4 min, individual pigs and analyses) was 7458 nM and 7475 nM and the “Plasma conc.” value ([4]; intravenous administration, 35 min, individual pigs and analyses) was 1282 nM.
